Residues, ends and D or L forms follow the SMILES beside them. *: point of attachment. PEG28 = NCCOCCOCCOCCOCCOCCOCCOCCOCCOCCOCCOCCOCCOCCOCCOCCOCCOCCOCCOCCOCCOCCOCCOCCOCCOCCOCCOCCOCCC(=O)O; For = O=C*
Key:
[1] = system: human leukocytes; assay: Chemotaxis assay; type: cell-based; details: compared with the non-PEGylated effector
Description: Human leukocytes were re-suspended in Hank ’s Buffered Saline Solution (HBSS, without
Ca2+, Mg 2+) with 10 mM Hepes pH 7.3 and 0.3% BSA at 10^7 cells/ml. Cells were pre-warmed
at 37°C for 20 min. After adding the effector dilutions in the lower compartment of 24-well plates
(800 µl/well), a Millicell culture plate insert with 5 µm pore size was placed in each well, f ollowed
by immediate addition of 200 µl (2 million) leuk ocytes. In one well, the cells were added without
a f ilter insert, allowing determination of the input number. The plate was incubated at 37°C and
5% CO2 f or 45 min. 5 mM EDTA solution was added and the plate was incubated f or another
10 min at 37 °C. […]
Phorbol
(§1) 12- m yr ist oyl 13-acetate (P MA , 3 µg/ml) was used as a positive control. All samples were f ixed
(§2) in 1% formaldehyde Hoechst 33258 solution (0.5 µg/ml) was added and cells were k ept on ice
(§3) until analysis using a FACS Canto system. After gating for live cells and granulocytes (human
(§4) cells) or non- lymphocytes (murine cells) in the FSC/SSC plot, rhodamine-positive cells were
(§5) identif ied in a PE/SSC plot, using an unstimulated sample as a reference.
(§6) Human monocytes, after an overnight pre- culture, were incubated f or 6 more hours in 1 ml
(§7) RPMI+10% FCS containing 100 nM F2- 2PEG, 0.1 ng/ml LPS (Sigma- Aldrich), or no stimulus.
(§8) All experiments were performed in duplicates. […]

[2] = system: human monocytes; assay: Cytokine release assay (ELISA); type: cell-based; details: 6 h incubation
Description: Phorbol
as §1, §2, §3, §4, §5, §6, §7
All experiments were performed in duplicates. Supernatants were centrif uged and aliq uot s of
150 µl were stored at - 80 °C until cytokine levels were measured with commercially available
ELISA kits (Ready-set-go system, eBiosciences). Cytokine concentrations in supernatants
were measured and calculated based on the standards included wit hin the ELISA kits and as
described by the manufacturer’s instructions. The following k its were used: Human TNFα (88-
analysis. Measured cytok ine levels were normalized to 1 (the average of the two unstimulated

[3] = system: human granulocytes; assay: Oxidative burst (dihydro-rhodamine oxidation) assay; type: cell-based; details: compared with the non-PEGylated effector
Description: Activation of the oxidative burst (phagocyte NADPH oxidase) was measured using a
dihydrorhodamine (DHR, Molecular Probes) oxidation assay, based on a method described
previously1. In brief, 200 µl samples of human, murine or guinea pig leukocytes (1.25x 106
cells/ml in HHBS + 10 mM Hepes, pH 7.3, 0.3% BSA and 5 mM EDTA) were loaded with DHR
and catalase (Sigma-Aldrich) and cytochalasin B (Sigma-Aldrich) were added. Cells were pre-
incubated at 37°C for 10 min followed by the addition of 50 µl of effector dilutions (5x the
intended concentration) in the same buffer and another 15 min of incubation at 37°C. Phorbol
as §1, §2, §3, §4, §5, §6, §7, §8

[4] = system: mouse skin; assay: Local skin inflammation model, immune cell infiltration; type: in vivo; details: mouse skin, 24 h after subcutaneous injection of 100 nmol in Matrigel, HE sections
Description: Animals: Eighth Edition. W ashington, DC: The National Academies Press, 2011) were […]
Committee (LANUV AZ. 87- 51.04.2010.A278). All experiments were performed in the Institute […]
GmbH (Sulzf eld, Germany) were used. Mice were housed in individual ventilated cages under […]
humidity and a 12h dark/light cycle.
Soest, Germany) was given ad libitum. Guinea pigs were housed in conventional open cages in the same way as describe for mice. Animals were allowed to acclimatize to their […]
additional immunohistochemical stainings with antibodies against granulocytes/monocytes

[5] = 100 nM F2-2PEG or 0.1 ng/ml LPS

## CC[C@H](C)[C@H](NC(=O)[C@H](CCSC)NC=O)C(=O)N[C@@H](Cc1ccccc1)C(=O)N[C@@H](CC(C)C)C(=O)NCC(=O)NCC(=O)N[C@@H](CCCCNC(=O)CCOCCOCCOCCOCCOCCOCCOCCOCCOCCOCCOCCOCCOCCOCCOCCOCCOCCOCCOCCOCCOCCOCCOCCOCCOCCOCCOCCOCCN)C(=O)N[C@@H](CCCCNC(=O)CCOCCOCCOCCOCCOCCOCCOCCOCCOCCOCCOCCOCCOCCOCCOCCOCCOCCOCCOCCOCCOCCOCCOCCOCCOCCOCCOCCOCCN)C(=O)O [F2-2PEG] (For-MIFLGGK(PEG28)K(PEG28)-OH)
[1]
  loss of potency to induce chemotaxis when linked to the PEG chains: 1–2 orders of magnitude
[2]; 100 nM F2-2PEG
  IL-1β secreted: increased
[2]; [5]
  IL-6 level: not significantly increased
  IL-8 level: not significantly increased
  TNFα level: not significantly increased
[3]
  loss of potency for neutrophil activation (superoxide production) when linked to the PEG chains: 1–2 orders of magnitude
[4]
  immune cell infiltration at the injection site: clearly showed infiltration by immune cells
